# Like-named read-outs stand apart in the source and are kept apart here.
# Tests used:
# [1] = Rat in vivo CNS penetration: plasma, brain and CSF concentrations by LC-MS/MS; conditions: male, Sprague Dawley, po, 10 mg/kg, 10 mg/kg p.o.; for concentration at 2 h / Kp at 2 h: 2 h post-dose; for concentration at 4 h / Kp at 4 h: 4 h post-dose; for concentration at 6 h / Kp at 6 h: 6 h post-dose; for concentration at 8 h / Kp at 8 h: 8 h post-dose
# Experimental: Rat In Vivo CNS Penetration Male Sprague Dawley rats were acquired from Charles River UK Ltd. (Margate, UK) and housed according to UK Home Office guidelines. Drugs were made up to the appropriate concentrations in 0.5% methyl cellulose. Animals were dosed orally (2 mL/kg) by gavage at the doses outlined in Tables 1 to 4 below. At the time points post-dosing, specified in the Tables 1 to 4 below the animals were administered an i.p. injection of sodium pentobarbitone (approximately 330 mg/kg for terminal anaesthesia). Using a guillotine, the animals were decapitated and trunk blood collected into 15 ml Falcon tubes containing 100 IU heparin. Blood was vortexed followed by centrifugation at 6000 rpm, 4° C. for 5 minutes. Plasma was collected for DMPK and ELISA assays and stored at −80° C. until use. Brains were dissected out and divided along the midline, weighed and stored at −80° C. until further use. Method for Analysis of Plasma, Brain and CSF Samples Test compound was prepared as a 1 mg free base/mL solution in DMSO, vortexed and sonicated for 5 min. The 1 mg/mL DMSO solution was diluted to 10 and 30 μg/mL acetonitrile stocks, by adding 10 μL to 990 μL acetonitrile and 30 μL to 970 acetonitrile, respectively. The 10 and 30 μg/mL acetonitrile stocks were then serially diluted 1:9 (v/v) (100 μL stock into 900 μL acetonitrile) to give the following solutions: 0.003, 0.01, 0.03, 0.1, 0.3, 1, 3, 10 and 30 μg/mL acetonitrile. Control male Sprague Dawley rat plasma and the study plasma samples were stored at −80° C. until the day of analysis when they were thawed at room temperature. Control plasma was centrifuged (2,000 g for 10 min) and aliquoted (90 μL) into eppendorf tubes for preparation of standards and blank samples. Study samples were previously aliquoted (100 μL) into eppendorf tubes immediately following collection of the plasma. An aliquot (10 μL) of the appropriate acetonitrile stock was added to the control plasma (to give a final volume of 100 μL) to give the required calibration standards covering the range 1-3000 ng/mL. Double blank and blank samples were prepared by adding 10 μL of acetonitrile to 90 μL of blank plasma. Control male Sprague Dawley rat brain and the study brain samples were weighed after collection and stored at −80° C. until the day of analysis when they were thawed at room temperature. Once thawed brains were diluted with water (4 mL per gram of tissue) and homogenised using a mechanical homogeniser. An aliquot (100 μL) of each study sample was taken into Micronics tubes ready for analysis and sufficient aliquots (90 μL) of control brain homogenate prepared for preparation of standards and blanks. An aliquot (10 μL) of the appropriate acetonitrile stocks was added to the control brain homogenate (to give a final volume of 100 μL) to give the required calibration standards covering the range 1.5-5000 ng/g. Double blank and blank samples were prepared by adding 10 μL of acetonitrile to 90 μL of blank brain homogenate. Each plasma and brain homogenate sample, standard and blank (100 μL) was extracted with an aliquot (300 μL) of acetonitrile (containing 0.1% formic acid and 100 ng/mL of an appropriate internal standard). Double blanks were extracted with an aliquot (300 μL) of acetonitrile containing 0.1% formic acid). All samples, standards and blanks were then vortex mixed and centrifuged (2000 g for 15 min). An aliquot (50 μL) of the resulting supernatant was then taken into a 2 mL 96-deep well plate and diluted with acetonitrile:water (50:50 v/v) (150 μL) ready for analysis by a specific LC-MS/MS method. Control male Sprague Dawley rat CSF and the study CSF samples were stored at −80° C. until the day of analysis when they were thawed at room temperature. An aliquot (50 μL) of each study sample was taken into Micronics tubes ready for analysis and sufficient aliquots (45 μL) of control CSF prepared for preparation of standards and blanks. […]
# [2] = Human liver microsomal stability assay; type: in vitro ADME; conditions: 0.1 μmol/L compound, 30 min, 37° C., NADPH generating system
# Experimental: Human Liver Microsomal Stability Assay The compound was dissolved in DMSO to prepare 1 mmol/L DMSO solution. The DMSO solution was diluted with distilled water to prepare 1 μmol/L compound dosing solution (DMSO conc.: 0.1%). 105 μL of reaction buffer (1 mol/L phosphate buffer (pH 7.4)/1 mmol/L EDTA (pH 7.4)/distilled water=1/1/5, v/v/v), 15 μL of 1 μmol/L compound dosing solution, and 15 μL of rat or human liver microsomes (5 mg/mL) were mixed, and preincubated for 5 min at 37° C. Metabolic reaction was initiated by adding 15 μL of NADPH generating system (3.3 mmol/L β-NADPH+, 80 mmol/L glucose 6-phosphate, 1 unit/mL glucose 6-phosphate dehydrogenase, 60 mmol/L MgCl2). For the control sample, NADPH generating system was replaced with 60 mmol/L MgCl2. The 150 μL of reaction mixture (final compound conc.: 0.1 μmol/L, final DMSO conc.: 0.01%) was incubated for 30 min at 37° C., and the reaction was terminated by adding 150 μL of methanol/acetonitrile solution containing an appropriate internal standard compound. The sample was vortexed and centrifuged, and obtained supernatant was subject to LC/MS analysis.
# [3] = CSF, CSF concentration, read-out: [CSF]
# [4] = brain, total brain concentration, read-out: [Br]
# [5] = brain, unbound brain, [Br] x Br Fu, read-out: [Bru]
# [6] = plasma, total plasma concentration, read-out: [Pl]
# [7] = plasma, unbound plasma, [Pl] x Pl Fu, read-out: [Plu]
structure (smiles),measurement,setting,value
"COc1cnc(C(=O)Nc2ccc(F)c([C@]34CO[C@H](C(F)F)[C@H]3CSC(N)=N4)c2)cn1 [Example 3, N-(3-((4aS,5S,7aS)-2-amino-5-(difluoromethyl)-4a,5,7,7a-tetrahydro-4H-furo[3,4-d][1,3]thiazin-7a-yl)-4-fluorophenyl)-5-methoxypyrazine-2-carboxamide]",concentration at 2 h,[1]; [3],34 nM
same,Kp at 2 h,"[1]; CSF, read-out: CSF:Plu",0.6
same,concentration at 4 h,[1]; [3],16 nM
same,Kp at 4 h,"[1]; CSF, read-out: CSF:Plu",0.5
same,concentration at 6 h,[1]; [3],15 nM
same,Kp at 6 h,"[1]; CSF, read-out: CSF:Plu",0.5
same,concentration at 8 h,[1]; [3],9 nM
same,Kp at 8 h,"[1]; CSF, read-out: CSF:Plu",0.7
same,Kp at 2 h,"[1]; brain, read-out: Brtot:Pltot",2.8
same,Kp at 2 h,"[1]; brain, read-out: Bru:Plu",0.7
same,concentration at 2 h,[1]; [4],1090 nM
same,concentration at 2 h,[1]; [5],38 nM
same,Kp at 4 h,"[1]; brain, read-out: Brtot:Pltot",2.5
same,Kp at 4 h,"[1]; brain, read-out: Bru:Plu",0.6
same,concentration at 4 h,[1]; [4],576 nM
same,concentration at 4 h,[1]; [5],20 nM
same,Kp at 6 h,"[1]; brain, read-out: Brtot:Pltot",2.4
same,Kp at 6 h,"[1]; brain, read-out: Bru:Plu",0.6
same,concentration at 6 h,[1]; [4],561 nM
same,concentration at 6 h,[1]; [5],20 nM
same,Kp at 8 h,"[1]; brain, read-out: Brtot:Pltot",3
same,Kp at 8 h,"[1]; brain, read-out: Bru:Plu",0.7
same,concentration at 8 h,[1]; [4],257 nM
same,concentration at 8 h,[1]; [5],9 nM
same,concentration at 2 h,[1]; [6],385 nM
same,concentration at 2 h,[1]; [7],55 nM
same,concentration at 4 h,[1]; [6],226 nM
same,concentration at 4 h,[1]; [7],32 nM
same,concentration at 6 h,[1]; [6],232 nM
same,concentration at 6 h,[1]; [7],33 nM
same,concentration at 8 h,[1]; [6],85 nM
same,concentration at 8 h,[1]; [7],12 nM
same,HLM stability: percentage of parent remaining upon 30 minute incubation with human liver microsomes,[2],73.3%

# From patent US9175013B2, “Fused aminodihydrothiazine derivatives” (Eisai R&D Management Co., Ltd., priority 2011, dated 2015)
